# Measurements published in patent publication US10369134B2, “Nonracemic mixtures and uses thereof” (Sunovion Pharmaceuticals Inc., priority 2017, dated 2019).
# Where two headings read alike, the source gives them in different places.
# Assays:
# rat = test: Forced Swim test; type: in vivo
# Protocol: The Forced Swim test (FST) is an indicator of the antidepressant-like activity of a test compound. The rat will swim before “giving up” and becoming immobile. A compound with antidepressant-like activity will decrease the time the rat is immobile.
# The animals (n=90) were divided into five groups. […] In the training session, each animal was gently placed into the plastic cylinder containing 5.8 L of water set at 25±1° C. Fifteen minutes after the beginning of the training session, the animal was removed from the water. The dosing solutions were administered 15 minutes after finishing of the training.
# The swim test was performed for 5 minutes in the same manner as the training session. In the swim test, the behavior of each animal was horizontally recorded using a video camera. After the swim test, animals were immediately sacrificed by inhalation of carbon dioxide.
# The swim movies were handled in a blind manner to ensure that the person who measured the immobility time had no information on the treatment. An animal was judged to be immobile whenever it remained floating in the water without moving its body or forepaws except for the slight movement to maintain its posture. The total time for which the animal remained immobile was defined as the immobility time. An observer blinded to the doses measured the immobility times. The immobility time of each animal was measured to one decimal place and rounded to a whole number. Immobility time was expressed in units of seconds. In each series the means of immobility time were calculated and rounded to a whole number using. The mean and standard error (SE) for each group were calculated using the data obtained from three experimental series and rounded to a whole number. All results are represented as the mean±SE.
# The data of imipramine were analyzed using t-test with a two-sided significance level of 5% (p<0.05).
# [1] = cited from earlier work
# [2] = Dynamic vapor sorption (DVS) water sorption isotherm; type: physicochemical; conditions: for maximum mass change in water sorption isotherms: 25° C., scanned over 0 to 95% relative humidity; for Change Mass: FIG. 8D
# Source text: In various embodiments, the hygroscopicity of crystal forms of racemic amisulpride, enantiomeric amisulpride, and enantiomeric amisulpride solvates are characterized by dynamic vapor sorption (DVS). DVS is a gravimetric technique that measures how much of a solvent is absorbed by a sample by varying the vapor concentration surrounding the sample (e.g., relative humidity) and measuring the change in mass. In the present application, DVS is used to generate water sorption isotherms, which represent the equilibrium amount of vapor sorbed as a function of steady state relative vapor pressure at a constant temperature.
# [3] = Plasma (S)-amisulpride levels during the PET study; type: in vivo; conditions: human, single oral solution 25-200 mg
# Protocol: Plasma samples were collected throughout the course of the PET scan session and were analyzed for (S)-amisulpride levels.
# [4] = Solubility of crystal forms; type: physicochemical; conditions: thermodynamic from solid
# Source text: In various embodiments, the compositions of the present inventions use new crystalline forms of enantiomeric amisulpride, Form A and Form A′. […] It is to be understood that upon dissolution of the compound it is no longer of a crystalline form, thus one of ordinary skill in the art will understand that the specific rotation in Table 7 refers to that of the non-crystalline compound.
# [5] = 0.05 M acetate buffer, aqueous buffer, solution pH 4.5, read-out: Solubility, 0.05 M Acetate Buffer
# [6] = acetone/MtBE 1:4, organic solvent or mixture, read-out: Solubility, Acetone/MtBE 1:4
# [7] = acetone/MtBE 1:9, organic solvent or mixture, read-out: Solubility, Acetone/MtBE 1:9
# [8] = ethyl acetate, organic solvent or mixture, read-out: Solubility, Ethyl Acetate
# [9] = simulated gastric fluid (no enzyme), pH 1.1, simulated gastric fluid, pH adjusted to 1.1 (Form A), 1.2 (Form A′), read-out: Solubility, Simulated Gastric Fluid (no enzyme)
# [10] = simulated intestinal fluid (no enzyme), pH 6.7, fassgf or other biorelevant, pH adjusted to 6.7 (Form A), 6.9 (Form A′), read-out: Solubility, Simulated Intestinal Fluid (no enzyme)
# [11] = water, pH 10.2, water, read-out: Solubility, Water
smiles,measurement,setting,value
"CN(C)CCCN1c2ccccc2CCc2ccccc21 [Imipramine, imipramine]",immobility time,"rat; 10 mg/kg i.p. at 24, 5 and 1 h before swim test, mean ± SE, vehicle 168±12",105 ± 15 s
same,shortening of immobility time,"rat; 10 mg/kg i.p., in all series, vs vehicle",more than 20%
OCCOCCN1CCN(C2=Nc3ccccc3Sc3ccccc32)CC1 [quetiapine],elimination half-life,[1]; literature (Delaney and Nemeroff 2001),about 7 hours
"CCN1CCCC1CNC(=O)c1cc(S(=O)(=O)CC)c(N)cc1OC (racemic) [racemic amisulpride, 4-amino-N-[(1-ethylpyrrolidin-2-yl)methyl]-5-ethylsulfonyl-2-methoxy-benzamide]",terminal plasma half-life,"[1]; biphasic elimination, Coukell et al. 1996",approximately 12 hours
"CCN1CCCC1CNC(=O)c1cc(S(=O)(=O)CC)c(N)cc1OC.O=C(O)C(O)C(O)C(=O)O [(S)-amisulpride D-tartrate, reference compound]",maximum mass change in water sorption isotherms,[2],52±9%
"CCN1CCC[C@H]1CNC(=O)c1cc(S(=O)(=O)CC)c(N)cc1OC [(S)-amisulpride, S-4-Amino-N-[(1-ethyl-2-pyrrolidinyl)methyl]-5-(ethylsulfonyl)-2-methoxybenzamide]",time frame in which plasma concentrations peaked,[3],approximately 3 hour
"CCN1CCC[C@H]1CNC(=O)c1cc(S(=O)(=O)CC)c(N)cc1OC [(S)-amisulpride Form A′, S-4-Amino-N-[(1-ethyl-2-pyrrolidinyl)methyl]-5-(ethylsulfonyl)-2-methoxybenzamide]",maximum mass change in water sorption isotherms,[2],0.35%
same,Change Mass,"[2]; 19.077 mg, relative humidity 0 %, rising steps",0.00 wt %
same,Change Mass,"[2]; relative humidity 1 %, falling steps",−0.01 wt %
same,Change Mass,"[2]; relative humidity 10 %, falling steps",0.01 wt %
same,Change Mass,"[2]; relative humidity 10 %, rising steps",0.03 wt %
same,Change Mass,"[2]; relative humidity 20 %, falling steps",0.03 wt %
same,Change Mass,"[2]; relative humidity 20 %, rising steps",0.05 wt %
same,Change Mass,"[2]; relative humidity 30 %, falling steps",0.05 wt %
same,Change Mass,"[2]; relative humidity 30 %, rising steps",0.07 wt %
same,Change Mass,"[2]; relative humidity 40 %, falling steps",0.07 wt %
same,Change Mass,"[2]; relative humidity 40 %, rising steps",0.09 wt %
same,Change Mass,"[2]; relative humidity 50 %, falling steps",0.08 wt %
same,Change Mass,"[2]; relative humidity 50 %, rising steps",0.11 wt %
same,Change Mass,"[2]; relative humidity 60 %, falling steps",0.11 wt %
same,Change Mass,"[2]; relative humidity 60 %, rising steps",0.13 wt %
same,Change Mass,"[2]; relative humidity 70 %, falling steps",0.14 wt %
same,Change Mass,"[2]; relative humidity 70 %, rising steps",0.16 wt %
same,Change Mass,"[2]; relative humidity 75 %, falling steps",0.16 wt %
same,Change Mass,"[2]; relative humidity 75 %, rising steps",0.18 wt %
same,Change Mass,"[2]; relative humidity 80 %, falling steps",0.17 wt %
same,Change Mass,"[2]; relative humidity 80 %, rising steps",0.19 wt %
same,Change Mass,"[2]; relative humidity 90 %, falling steps",0.28 wt %
same,Change Mass,"[2]; relative humidity 90 %, rising steps",0.25 wt %
same,Change Mass,"[2]; relative humidity 95 %, first step at 95 %",0.34 wt %
same,Change Mass,"[2]; relative humidity 95 %, second step at 95 %",0.35 wt %
same,solubility,[4]; [5],> 100000 µg/mL
same,solubility,[4]; [6],8000 µg/mL
same,solubility,[4]; [7],2000 µg/mL
same,solubility,[4]; [8],3900 µg/mL
same,solubility,[4]; [9],> 100000 µg/mL
same,solubility,[4]; [10],> 100000 µg/mL
same,solubility,[4]; [11],2000 µg/mL
"CCN1CCC[C@@H]1CNC(=O)c1cc(S(=O)(=O)CC)c(N)cc1OC [(R)-amisulpride Form A, R-4-Amino-N-[(1-ethyl-2-pyrrolidinyl)methyl]-5-(ethylsulfonyl)-2-methoxybenzamide]",solubility,[4]; [5],> 100000 µg/mL
same,solubility,[4]; [6],8000 µg/mL
same,solubility,[4]; [7],2000 µg/mL
same,solubility,[4]; [8],3900 µg/mL
same,solubility,[4]; [9],> 100000 µg/mL
same,solubility,[4]; [10],> 100000 µg/mL
same,solubility,[4]; [11],2000 µg/mL
